The text below walks through data of patent US7943628B2, “Pyrimidine derivatives” (Pfizer Limited, priority 2005, dated 2011).

In one assay the target is T1, histamine H4 receptor (Homo sapiens, UniProt Q9H3N8).
T1 construct: expressed in transfected cells; host or cells: CHO cells
T1 sequence (Q9H3N8 whole entry): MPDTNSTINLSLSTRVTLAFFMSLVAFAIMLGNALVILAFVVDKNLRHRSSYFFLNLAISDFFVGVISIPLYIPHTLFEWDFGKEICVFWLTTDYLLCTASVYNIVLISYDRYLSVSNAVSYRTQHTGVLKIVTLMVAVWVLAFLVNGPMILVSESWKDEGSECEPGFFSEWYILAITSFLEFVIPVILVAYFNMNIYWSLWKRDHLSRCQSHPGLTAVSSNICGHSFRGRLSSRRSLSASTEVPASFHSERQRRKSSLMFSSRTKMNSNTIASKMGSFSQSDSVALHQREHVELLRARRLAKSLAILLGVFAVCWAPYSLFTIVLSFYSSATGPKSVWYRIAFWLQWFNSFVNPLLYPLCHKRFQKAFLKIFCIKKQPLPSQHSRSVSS
The assay is described as follows: H4 binding, method 1 ([3H]-histamine filtration binding on CHO cell membranes). Conditions: 1.5 h. How it is done: Cell pellets from CHO cells expressing the histamine H4 receptor were homogenised in ice-cold 50 mM Tris-HCl/0.5 mM CaCl2 buffer containing a protease inhibitor cocktail (Roche®, United Kingdom) using a ground glass homogeniser. Homogenates were centrifuged at 48000 g for 30 min at 4° C. The membrane pellet was resuspended in fresh buffer and the centrifugation step was repeated as described above. The membrane pellet was resuspended in 50 mM Tris-HCl in the same volume as the original cell pellet. Aliquots of membrane preparations were stored at −80° C. and were used for [^3H]-Histamine binding experiments.
Cell membranes (20-35 μg/well) were incubated for 90 minutes shaking at room temperature with 3 nM [2,5-^3H]Histamine dihydrochloride (30-60 Ci/mmol) in 50 mM Tris-HCl (pH 7.4), with or without competing H4 ligands. The reaction was terminated by rapid filtration through 0.5% polyethylenimine-soaked Unifilter GF/B plates (Packard) followed by three washes with 1 ml ice-cold 50 mM Tris-HCl. Filters were dried for 45 min at 45° C. and bound radiolabel was determined using scintillation counting techniques. Non-specific binding was defined with 10 μM JNJ7777120.
Usually inhibition stands for the percentage by which the read-out fell short of the control. A higher inhibition goes with strong suppression. Turning to `N[C@@]12C[C@@H]1CN(c1cc(NCC3CC3)ncn1)C2` (relative stereo) [Example 304, (1S*,5R*)-3-{6-[(Cyclopropylmethyl)amino]pyrimidin-4-yl}-3-azabicyclo[3.1.0]hexan-1-amine], 10 µM produced 19% inhibition.

The assay is the same for the next values; noted with them: H4 binding, method 1; Ki calculated from IC50 (Cheng-Prussoff).
As a reminder, the Ki is a dissociation constant, usually derived from enzyme kinetics or from competition with a known ligand. Take `CC(C)Nc1cc(N2CC[C@@H]3NCC[C@@H]3C2)nc(N)n1` (racemic) [Example 137, N^4-Isopropyl-6-[(3aR*,7aS*)-octahydro-5H-pyrrolo[3,2-c]pyridin-5-yl]pyrimidine-2,4-diamine]: the Ki is 8.25 nM. On the same count and under the same terms, under `CC(C)(C)CNc1cc(N2CC[C@@H]3NCC[C@@H]3C2)nc(N)n1` (racemic) [Example 162, N^4-(2,2-Dimethylpropyl)-6-[(3aR*,7aS*)-octahydro-5H-pyrrolo[3,2-c]pyridin-5-yl]pyrimidine-2,4-diamine] stands 2.91 nM; under `Nc1nc(NCC2CC2)cc(N2CC[C@@H]3NCC[C@@H]3C2)n1` (racemic) [Example 188, N^4-(Cyclopropylmethyl)-6-[(3aR*,7aS*)-octahydro-5H-pyrrolo[3,2-c]pyridin-5-yl]pyrimidine-2,4-diamine], 25.5 nM. Still for that read-out and setting: with `CCNc1cc(N2CC[C@@H]3NCC[C@@H]3C2)nc(N)n1` (racemic) [Example 193, N^4-Ethyl-6-[(3aR*,7aS*)-octahydro-5H-pyrrolo[3,2-c]pyridin-5-yl]pyrimidine-2,4-diamine] the figure was 31 nM. On the same count and under the same terms, with `CNc1cc(N2CC[C@@H]3NCC[C@@H]3C2)nc(N)n1` (racemic) [Example 200, N^4Methyl-6-[(3aR*,7aS*)-octahydro-5H-pyrrolo[3,2-c]pyridin-5-yl]pyrimidine-2,4-diamine] the figure was 34 nM. For `CC(C)(C)Nc1cc(N2C[C@@H]3CCCN[C@@H]3C2)nc(N)n1` (relative stereo) [Example 150, N^4-(tert-Butyl)-6-[(4aS*,7aS*)-octahydro-6H-pyrrolo[3,4-b]pyridin-6-yl]pyrimidine-2,4-diamine], the Ki is 11.8 nM.

For `CN(C)[C@H]1CCN(c2cc(NCCC(C)(C)C)ncn2)C1` [Example 2, 6-[(3S)-3-(Dimethylamino)pyrrolidin-1-yl]-N-(3,3-dimethylbutyl)pyrimidin-4-amine], the Ki is 485 nM. `CN1C[C@@H]2CN(c3cc(NCCC(C)(C)C)ncn3)C[C@@H]2C1` [Example 3, N-(3,3-Dimethylbutyl)-6-[(3aR*,6aS*)-5-methylhexahydropyrrolo[3,4-c]pyrrol-2(1H)-yl]pyrimidin-4-amine]: the inhibitory constant (Ki) is 220 nM.

Turning to `CN(C)C1CN(c2cc(NCCC(C)(C)C)ncn2)C1` [Example 4, 6-[3-(Dimethylamino)azetidin-1-yl]-N-(3,3-dimethylbutyl)pyrimidin-4-amine], the Ki is 374 nM. As to `CN1C[C@@H]2C[C@H]1CN2c1cc(NCCC(C)(C)C)ncn1` [Example 5, N-(3,3-Dimethylbutyl)-6-[(1S,4S)-5-methyl-2,5-diazabicyclo[2.2.1]hept-2-yl]pyrimidin-4-amine], the inhibition constant (Ki) is 263 nM.

Turning to `CC(C)(C)CCNc1cc(N[C@H]2CCNC2)ncn1` [Example 6, N-(3,3-Dimethylbutyl)-N′-[(3S)-pyrrolidin-3-yl]pyrimidine-4,6-diamine], the Ki was 502 nM. The same measure, in the same setting: under `CC(C)(C)CCNc1cc(N[C@@H]2CCNC2)ncn1` [Example 7, N-(3.3-Dimethylbutyl)-N′-[(3R)-pyrrolidin-3-yl]pyrimidine-4,6-diamine] stands 939 nM; under `CN1CC[C@@H](Nc2cc(NCCC(C)(C)C)ncn2)C1` [Example 8, N-(3,3-Dimethylbutyl)-N′-[(3R)-1-methylpyrrolidin-3-yl]pyrimidine-4,6-diamine], 593 nM.

As for `CCNc1cc(N2CC(NC)C2)nc(N)n1` [Example 70, N^4-Ethyl-6-[3-(methylamino)azetidin-1-yl]pyrimidine-2,4-diamine], the Ki was 3.79 nM. The same measure, in the same setting: with `CCCNc1cc(N2CC(NC)C2)nc(N)n1` [Example 73, 6-[3-(Methylamino)azetidin-1-yl]-N^4-propylpyrimidine-2,4-diamine] the figure was 0.88 nM; with `CNC1CN(c2cc(NC3CCC3)nc(N)n2)C1` [Example 75, N^4-Cyclobutyl-6-[3-(methylamino)azetidin-1-yl]pyrimidine-2,4-diamine], 1.07 nM.

As to `CC(C)CCNc1cc(N2CCN(C)CC2)ncn1` [Example 100, N-(3-Methylbutyl)-6-(4-methylpiperazin-1-yl)pyrimidin-4-amine], the Ki was 40.2 nM. Same read-out and setting: under `CC(C)(C)CCNc1cc(N[C@H]2CCNC2)nc(N)n1` [Example 101, N^4-(3,3-Dimethylbutyl)-N^6-[(3S)-pyrrolidin-3-yl]pyrimidine-2,4,6-triamine] stands 463 nM; under `CN1CCN(c2cc(NCCC(C)(C)C)nc(N)n2)CC1` [Example 102, N^4-(3,3-Dimethylbutyl)-6-(4-methylpiperazin-1-yl)pyrimidine-2,4-diamine], 57.3 nM; under `CCNc1cc(N2CCN(C)CC2)ncn1` [Example 103, N-Ethyl-6-(4-methylpiperazin-1-yl)pyrimidin-4-amine], 87.9 nM.

With `CC(C)Nc1cc(N2CCN(C)CC2)ncn1` [Example 104, N-Isopropyl-6-(4-methylpiperazin-1-yl)pyrimidin-4-amine], the Ki is 118 nM. Take `CC(C)CNc1cc(N2CCN(C)CC2)ncn1` [Example 105, N-Isobutyl-6-(4-methylpiperazin-1-yl)pyrimidin-4-amine]: the Ki is 68.8 nM. The same measure, in the same setting: with `CN1CCN(c2cc(NCC3CC3)ncn2)CC1` [Example 106, N-(Cyclopropylmethyl)-6-(4-methylpiperazin-1-yl)pyrimidin-4-amine] the figure was 66.1 nM. Same read-out and setting: under `CC(C)CCNc1cc(N[C@H]2CCNC2)ncn1` [Example 107] stands 271 nM; under `CCC(C)CNc1cc(N2CC(NC)C2)nc(N)n1` (centres unmarked) [Example 128, 6-[3-(Methylamino)azetidin-1-yl]-N^4-(2-methylbutyl)pyrimidine-2,4-diamine], 0.805 nM; under `CNC1CN(c2cc(N[C@@H](C)C(C)C)nc(N)n2)C1` [Example 129, N^4-[(1S)-1,2-Dimethylpropyl]-6-[3-(methylamino)azetidin-1-yl]pyrimidine-2,4-diamine], 3.78 nM. With `CNC1CN(c2cc(NCc3cc(F)ccc3F)nc(N)n2)C1` [Example 130, N^4-(2,5-Difluorobenzyl)-6-[3-(methylamino)azetidin-1-yl]pyrimidine-2,4-diamine], the Ki was 9.69 nM. As to `CNC1CN(c2cc(NCc3cccc(F)c3F)nc(N)n2)C1` [Example 131, N^4-(2,3-Difluorobenzyl)-6-[3-(methylamino)azetidin-1-yl]pyrimidine-2,4-diamine], the inhibition constant (Ki) was 17.8 nM.

For the molecule `CCCCNc1cc(N2CC(NC)C2)nc(N)n1` [Example 132, N^4-Butyl-6-[3-(methylamino)azetidin-1-yl]pyrimidine-2,4-diamine], the inhibition constant Ki is 0.791 nM. For `CC(C)CNc1cc(N2CCCNCC2)nc(N)n1` [Example 133, 6-(1,4-Diazepan-1-yl)-N^4-isobutylpyrimidine-2,4-diamine], the Ki is 0.653 nM. The same measure, in the same setting: with `CN[C@@H]1CCN(c2cc(NC3CC3C)nc(N)n2)C1` (stereo partly drawn) [Example 134, 6-[(3R)-3-(Methylamino)pyrrolidin-1-yl]-N^4-(2-methylcyclopropyl)pyrimidine-2,4-diamine] the figure was 4.15 nM. Still for that read-out and setting: under `CC(C)CNc1cc(N2CCCN(C)CC2)nc(N)n1` [Example 135, N^4-Isobutyl-6-(4-methyl-1,4-diazepan-1-yl)pyrimidine-2,4-diamine] stands 1.13 nM; under `Nc1nc(NCC2CC2)cc(N2CC(N3CCCC3)C2)n1` [Example 136, N^4-(Cyclopropylmethyl)-6-(3-pyrrolidin-1-ylazetidin-1-yl)pyrimidine-2,4-diamine], 7.21 nM. `CN[C@@H]1CCN(c2cc(NC34CC(C3)C4)nc(N)n2)C1` [Example 138, N^4-Bicyclo[1.1.1]pent-1-yl-6-[(3R)-3-(methylamino)pyrrolidin-1-yl]pyrimidine-2,4-diamine]: the inhibitory constant (Ki) is 5.8 nM. On the same count and under the same terms, under `CCNc1cc(N2CCC(N)CC2)nc(N)n1` [Example 139, 6-(4-Aminopiperidin-1-yl)-N^4-ethylpyrimidine-2,4-diamine] stands 12.1 nM. On the same count and under the same terms, with `CCCNc1cc(N2CC(C)(NC)C2)nc(N)n1` [Example 140, 6-[3-Methyl-3-(methylamino)azetidin-1-yl]-N^4-propylpyrimidine-2,4-diamine] the figure was 12.1 nM; with `CC(C)(C)CNc1cc(N2CC(N3CCCC3)C2)nc(N)n1` [Example 142, N^4-(2,2-Dimethylpropyl)-6-(3-pyrrolidin-1-ylazetidin-1-yl)pyrimidine-2,4-diamine], 3.04 nM; with `CNCCNc1cc(NCC(C)(C)C)nc(N)n1` [Example 143, N^4-(2,2-Dimethylpropyl)-N^6-[2-(methylamino)ethyl]pyrimidine-2,4,6-triamine], 72.4 nM. Same read-out and setting: with `CN(C)CCNc1cc(NCC(C)(C)C)nc(N)n1` [Example 144, N^4-[2-(Dimethylamino)ethyl]-N^6-(2,2-dimethylpropyl)pyrimidine-2,4,6-triamine] the figure was 16.8 nM.

On to `CC(C)NC1CN(c2cc(NCC(C)(C)C)nc(N)n2)C1` [Example 145, N^4-(2,2-Dimethylpropyl)-6-[3-(isopropylamino)azetidin-1-yl]pyrimidine-2,4-diamine], for which the Ki was 14.3 nM.
